Patent publication US9663528B2, “Substituted 1,2,3,4,6,8,12,12a-octahydro-1,4-methanodipyrido[1,2-a:1',2'-d]pyrazines and methods for treating viral infections” (priority 2012, dated 2017)

What was measured:
PXR = PXR (Homo sapiens (Human), UniProt O75469); experiment: Human PXR activation assay (luciferase reporter gene assay, DPX2 cells); type: cell-based; settings: human
Method: A stably transformed tumor cell line (DPX2) was plated on 96-well microtiter plates. DPX2 cells harbor the human PXR gene (NR112) and a luciferase reporter gene linked to two promoters identified in the human CYP3A4 gene, namely XREM and PXRE. […] The number of viable cells was determined and the reporter gene activity was assessed. Positive control: […]

in vitro = settings: human, CC50 nM in MT-4
Method: For the antiviral assay utilizing MT4 cells, 0.4 μL of […] test concentration of 3-fold serially diluted compound in DMSO was added to 40 μL of cell growth medium (RPMI 1640, 10% FBS, 1% penicilline/Streptomycine, 1% L-Glutamine, 1% HEPES) in each well of 384-well assay plates (10 concentrations) in quidruplicate.
1 mL aliquots of 2×10^6 MT4 cells are pre-infected for 1 and 3 hours respectively at 37° C. with 25 μL (MT4) or of either cell growth medium (mock-infected) or a fresh 1:250 dilution of an HIV-IIIb concentrated ABI stock (0.004 m.o.i. for MT4 cells). Infected and uninfected cells are diluted in cell growth medium and 35 μL of 2000 (for MT4) cells is added to each well of the assay plates.
Assay plates were then incubated in a 37° C. incubator. After 5 days of incubation, 25 μL of 2× concentrated CellTiter-Glo™ Reagent (catalog #G7573, Promega Biosciences, Inc., Madison, Wis.) was added to each well of the assay plate. Cell lysis was carried out by incubating at room temperature for 2-3 minutes, and then chemiluminescence was read using the Envision reader (PerkinElmer).

PXR, sequence (O75469 whole entry): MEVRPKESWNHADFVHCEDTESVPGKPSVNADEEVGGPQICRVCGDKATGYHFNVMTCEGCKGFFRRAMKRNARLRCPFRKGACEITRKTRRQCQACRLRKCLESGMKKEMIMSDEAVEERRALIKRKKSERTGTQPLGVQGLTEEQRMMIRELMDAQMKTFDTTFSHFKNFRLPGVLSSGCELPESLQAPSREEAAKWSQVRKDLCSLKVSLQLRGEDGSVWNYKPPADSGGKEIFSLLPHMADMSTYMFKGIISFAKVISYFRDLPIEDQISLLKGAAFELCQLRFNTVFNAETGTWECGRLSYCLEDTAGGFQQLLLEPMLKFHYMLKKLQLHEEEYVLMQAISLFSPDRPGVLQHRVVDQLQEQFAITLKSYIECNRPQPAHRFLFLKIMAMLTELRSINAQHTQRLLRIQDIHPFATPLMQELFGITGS

Row | Compound | Emax at 24 h, 15 µM (PXR) | CC50 at 5 days (in vitro)
1 | O=C(NCc1c(F)cc(F)cc1F)c1cn2c(c(O)c1=O)C(=O)N1[C@@H]3C[C@H]([C@@H]1C2)C(F)(F)C3 [Compound 57, (1R,4R,12aR)-2,2-difluoro-7-hydroxy-6,8-dioxo-N-(2,4,6-trifluorobenzyl)-1,2,3,4,6,8,12,12a-octahydro-1,4-methanodipyrido[1,2-a:1′,2′-d]pyrazine-9-carboxamide] | 3% | 11800 nM
2 | O=C(NCc1ccc(F)c(Cl)c1F)c1cn2c(c(O)c1=O)C(=O)N1[C@@H]3C[C@H]([C@@H]1C2)C(F)(F)C3 [Compound 58, (1R,4R,12aR)-N-(3-chloro-2,4-difluorobenzyl)-2,2-difluoro-7-hydroxy-6,8-dioxo-1,2,3,4,6,8,12,12a-octahydro-1,4-methanodipyrido[1,2-a:1′,2′-d]pyrazine-9-carboxamide] | 1% | 7690 nM
3 | O=C(NCc1c(F)cc(F)cc1F)c1cn2c(c(O)c1=O)C(=O)N1[C@@H]3C[C@@H]([C@H](F)C3)[C@@H]1C2 [Compound 59, (1R,2R,4R,12aR)-2-fluoro-7-hydroxy-6,8-dioxo-N-(2,4,6-trifluorobenzyl)-1,2,3,4,6,8,12,12a-octahydro-1,4-methanodipyrido[1,2-a:1′,2′-d]pyrazine-9-carboxamide] | 4% | 22200 nM
4 | O=C(NCc1cccc(Cl)c1Cl)c1cn2c(c(O)c1=O)C(=O)N1[C@H]3CC[C@H](C3)[C@@H]1C2 [Compound 60, (1R,4S,12aR)-N-(2,3-dichlorobenzyl)-7-hydroxy-6,8-dioxo-1,2,3,4,6,8,12,12a-octahydro-1,4-methanodipyrido[1,2-a:1′,2′-d]pyrazine-9-carboxamide] | 3% | 3310 nM
5 | O=C(NCc1ccc(F)c(Cl)c1F)c1cn2c(c(O)c1=O)C(=O)N1[C@H]3CC[C@H](C3)[C@H]1C2 [Compound 61, (1R,4S,12aS)-N-(3-chloro-2,4-difluorobenzyl)-7-hydroxy-6,8-dioxo-1,2,3,4,6,8,12,12a-octahydro-1,4-methanodipyrido[1,2-a:1′,2′-d]pyrazine-9-carboxamide] | 1% | 25900 nM
6 | O=C(NCc1ccc(F)c(F)c1)c1cn2c(c(O)c1=O)C(=O)N1[C@H]3CC[C@H](C3)[C@@H]1C2 [Compound 66, (1R,4S,12aR)-N-(3,4-difluorobenzyl)-7-hydroxy-6,8-dioxo-1,2,3,4,6,8,12,12a-octahydro-1,4-methanodipyrido[1,2-a:1′,2′-d]pyrazine-9-carboxamide] | 0% | 11800 nM
7 | O=C(NCc1ccc(F)cc1C(F)(F)F)c1cn2c(c(O)c1=O)C(=O)N1[C@H]3CC[C@H](C3)[C@@H]1C2 [Compound 67, (1R,4S,12aR)-N-(4-fluoro-2-(trifluoromethyl)benzyl)-7-hydroxy-6,8-dioxo-1,2,3,4,6,8,12,12a-octahydro-1,4-methanodipyrido[1,2-a:1′,2′-d]pyrazine-9-carboxamide] | 0% | 2980 nM
8 | O=C(NCc1ccc(F)cc1Cl)c1cn2c(c(O)c1=O)C(=O)N1[C@H]3CC[C@H](C3)[C@@H]1C2 [Compound 68, (1R,4S,12aR)-N-(2-chloro-4-fluorobenzyl)-7-hydroxy-6,8-dioxo-1,2,3,4,6,8,12,12a-octahydro-1,4-methanodipyrido[1,2-a:1′,2′-d]pyrazine-9-carboxamide] | 6% | 4180 nM
9 | O=C(NCc1ccc(F)c(Cl)c1F)c1cn2c(c(O)c1=O)C(=O)N1[C@H]3CC[C@H](C3)[C@@H]1C2 [Compound 69, (1R,4S,12aR)-N-(3-chloro-2,4-difluorobenzyl)-7-hydroxy-6,8-dioxo-1,2,3,4,6,8,12,12a-octahydro-1,4-methanodipyrido[1,2-a:1′,2′-d]pyrazine-9-carboxamide] | 5% | 4770 nM
10 | Cc1cccc(CNC(=O)c2cn3c(c(O)c2=O)C(=O)N2[C@H]4CC[C@H](C4)[C@@H]2C3)c1F [Compound 70, (1R,4S,12aR)-N-(2-fluoro-3-methylbenzyl)-7-hydroxy-6,8-dioxo-1,2,3,4,6,8,12,12a-octahydro-1,4-methanodipyrido[1,2-a:1′,2′-d]pyrazine-9-carboxamide] | 10% | 8410 nM
11 | O=C(NCc1c(Cl)ccc(Cl)c1F)c1cn2c(c(O)c1=O)C(=O)N1[C@H]3CC[C@H](C3)[C@@H]1C2 [Compound 71, (1R,4S,12aR)-N-(3,6-dichloro-2-fluorobenzyl)-7-hydroxy-6,8-dioxo-1,2,3,4,6,8, 12,12a-octahydro-1,4-methanodipyrido[1,2-a:1′,2′-d]pyrazine-9-carboxamide] | 3% | 4660 nM
12 | O=C(NCc1cccc(Cl)c1)c1cn2c(c(O)c1=O)C(=O)N1[C@H]3CC[C@H](C3)[C@@H]1C2 [Compound 72, (1R,4S,12aR)-N-(3-chlorobenzyl)-7-hydroxy-6,8-dioxo-1,2,3,4,6,8,12,12a-octahydro-1,4-methanodipyrido[1,2-a:1′,2′-d]pyrazine-9-carboxamide] | 4% | 6260 nM
13 | O=C(NCc1c(F)ccc(Cl)c1F)c1cn2c(c(O)c1=O)C(=O)N1[C@H]3CC[C@H](C3)[C@@H]1C2 [Compound 73, (1R,4S,12aR)-N-(3-chloro-2,6-difluorobenzyl)-7-hydroxy-6,8-dioxo-1,2,3,4,6,8,12,12a-octahydro-1,4-methanodipyrido[1,2-a:1′,2′-d]pyrazine-9-carboxamide] | 7% | 9190 nM
14 | O=C(NCc1ccc(F)c(Cl)c1)c1cn2c(c(O)c1=O)C(=O)N1[C@H]3CC[C@H](C3)[C@@H]1C2 [Compound 75, (1R,4S,12aR)-N-(3-chloro-4-fluorobenzyl)-7-hydroxy-6,8-dioxo-1,2,3,4,6,8,12,12a-octahydro-1,4-methanodipyrido[1,2-a:1′,2′-d]pyrazine-9-carboxamide] | 0% | 5290 nM
15 | O=C(NCc1cc(F)c(F)cc1F)c1cn2c(c(O)c1=O)C(=O)N1[C@H]3CC[C@H](C3)[C@@H]1C2 [Compound 79, (1R,4S,12aR)-7-hydroxy-6,8-dioxo-N-(2,4,5-trifluorobenzyl)-1,2,3,4,6,8,12,12a-octahydro-1,4-methanodipyrido[1,2-a:1′,2′-d]pyrazine-9-carboxamide] | 0% | 12100 nM
16 | O=C(NCc1cc(Cl)c(F)cc1F)c1cn2c(c(O)c1=O)C(=O)N1[C@H]3CC[C@H](C3)[C@@H]1C2 [Compound 80, (1R,4S,12aR)-N-(5-chloro-2,4-difluorobenzyl)-7-hydroxy-6,8-dioxo-1,2,3,4,6,8,12,12a-octahydro-1,4-methanodipyrido[1,2-a:1′,2′-d]pyrazine-9-carboxamide] | 2% | 5040 nM
17 | O=C(NCc1c(F)cc(F)cc1F)c1cn2c(c(O)c1=O)C(=O)N1[C@H](C2)[C@H]2C[C@H](F)[C@@H]1C2 [Compound 81, (1R,3S,4S,12aS)-3-fluoro-7-hydroxy-6,8-dioxo-N-(2,4,6-trifluorobenzyl)-1,2,3,4,6,8,12,12a-octahydro-1,4-methanodipyrido[1,2-a:1′,2′-d]pyrazine-9-carboxamide] | 1% | 12300 nM
18 | C[C@@H]1C[C@H]2C[C@@H]1[C@@H]1Cn3cc(C(=O)NCc4c(F)cc(F)cc4F)c(=O)c(O)c3C(=O)N21 [Compound 84, (1S,2R,4S,12aR)-7-hydroxy-2-methyl-6,8-dioxo-N-(2,4,6-trifluorobenzyl)-1,2,3,4,6,8,12,12a-octahydro-1,4-methanodipyrido[1,2-a:1′,2′-d]pyrazine-9-carboxamide] | 21% | 9730 nM
19 | O=C(NCc1c(F)cc(F)cc1F)c1cn2c(c(O)c1=O)C(=O)N1[C@H]3CCC[C@H](C3)[C@H]1C2 [Compound 85, (6aS,7R,11S)-1-hydroxy-2,13-dioxo-N-(2,4,6-trifluorobenzyl)-6,6a,7,8,9,10,11,13-octahydro-2H-7,11-methanopyrido[1′,2′:4,5]pyrazino[1,2-a]azepine-3-carboxamide] | 77% | 10400 nM
20 | C[C@H]1C[C@@H]2C[C@H]1N1C(=O)c3c(O)c(=O)c(C(=O)NCc4c(F)cc(F)cc4F)cn3C[C@H]21 [Compound 86, (1R,3S,4R,12aS)-7-hydroxy-3-methyl-6,8-dioxo-N-(2,4,6-trifluorobenzyl)-1,2,3,4,6,8,12,12a-octahydro-1,4-methanodipyrido[1,2-a:1′,2′-d]pyrazine-9-carboxamide] | 30% | 22400 nM
21 | O=C(NCc1cccc(Cl)c1F)c1cn2c(c(O)c1=O)C(=O)N1[C@H]3CC[C@H](C3)O[C@@H]1C2 [Compound 88, (2R,5S,13aR)-N-(3-chloro-2-fluorobenzyl)-8-hydroxy-7,9-dioxo-2,3,4,5,7,9,13,13a-octahydro-2,5-methanopyrido[1′,2′:4,5]pyrazino[2,1-b][1,3]oxazepine-10-carboxamide] | 27% | 3230 nM
